Experimental findings from US20260232658A1, “AZETIDINYL BENZOXAZOLE COMPOUNDS AND THEIR USE AS MER AND AXL INHIBITORS” (DONG-A ST CO., LTD., priority 2022, published 2026) are described below.

As usually defined, the IC50 is the midpoint of a concentration-inhibition curve.

One experiment concerns the target T1, TYRO3 (455-end) (Homo sapiens, UniProt Q06418).
T1 construct: TYRO3 (455-end); purchased SignalChem, Canada
T1 sequence (Q06418 455-890 limits assumed): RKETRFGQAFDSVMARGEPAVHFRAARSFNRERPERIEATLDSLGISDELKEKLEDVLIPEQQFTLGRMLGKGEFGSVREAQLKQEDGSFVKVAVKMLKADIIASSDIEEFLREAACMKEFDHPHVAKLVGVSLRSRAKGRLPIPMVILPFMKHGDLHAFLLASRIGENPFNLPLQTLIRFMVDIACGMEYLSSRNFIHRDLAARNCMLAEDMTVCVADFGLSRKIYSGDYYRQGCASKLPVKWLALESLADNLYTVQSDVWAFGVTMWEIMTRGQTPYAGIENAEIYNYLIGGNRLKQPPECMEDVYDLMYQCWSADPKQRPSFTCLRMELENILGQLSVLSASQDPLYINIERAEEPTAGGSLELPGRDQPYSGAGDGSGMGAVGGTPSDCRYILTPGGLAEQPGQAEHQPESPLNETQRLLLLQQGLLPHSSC
As to the kind of experiment: HTRF kinase activity biochemical assay, TYRO3.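 Note: biotinylated tyrosine kinase substrate phosphorylation detected via streptavidin-XL665 and Eu3+-cryptate anti-phospho antibody time-resolved fluorescence, read after 1 h detection at room temperature, 384-well format.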 As to conditions: recombinant kinase, 10 uM ATP, 30 minutes pre-incubation; read-out: HTRF TYRO IC50.

The target in a further experiment is T2, human MER (528-end) (Homo sapiens, UniProt Q12866).
T2 construct: human MER (528-end); purchased Carnabio, Japan
T2 sequence (Q12866 528-999 limits assumed): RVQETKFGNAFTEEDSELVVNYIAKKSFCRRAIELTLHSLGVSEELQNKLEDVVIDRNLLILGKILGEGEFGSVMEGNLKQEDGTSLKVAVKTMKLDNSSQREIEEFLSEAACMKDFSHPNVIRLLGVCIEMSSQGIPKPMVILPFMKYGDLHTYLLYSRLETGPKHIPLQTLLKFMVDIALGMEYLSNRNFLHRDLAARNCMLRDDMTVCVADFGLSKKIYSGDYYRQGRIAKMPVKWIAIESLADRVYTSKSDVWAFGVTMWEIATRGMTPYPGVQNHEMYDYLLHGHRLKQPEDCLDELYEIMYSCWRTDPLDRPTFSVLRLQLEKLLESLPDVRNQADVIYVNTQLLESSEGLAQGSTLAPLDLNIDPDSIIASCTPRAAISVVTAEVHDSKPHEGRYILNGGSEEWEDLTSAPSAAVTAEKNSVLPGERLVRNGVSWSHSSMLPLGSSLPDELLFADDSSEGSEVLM
As to the kind of experiment: HTRF kinase activity biochemical assay, MER.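 Note: phosphorylation of a biotin-tagged tyrosine kinase substrate detected by Eu3+-cryptate antibody and streptavidin-XL665 time-resolved fluorescence, read after 1 h at room temperature.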 As to conditions: recombinant kinase, 10 uM ATP, 30 minutes pre-incubation; read-out: HTRF MERTK IC50.

The target in the next experiment is T3, human AXL (473-end) (Homo sapiens, UniProt P30530).
T3 construct: human AXL (473-end); purchased SignalChem, Canada
T3 sequence (P30530 473-894 limits assumed): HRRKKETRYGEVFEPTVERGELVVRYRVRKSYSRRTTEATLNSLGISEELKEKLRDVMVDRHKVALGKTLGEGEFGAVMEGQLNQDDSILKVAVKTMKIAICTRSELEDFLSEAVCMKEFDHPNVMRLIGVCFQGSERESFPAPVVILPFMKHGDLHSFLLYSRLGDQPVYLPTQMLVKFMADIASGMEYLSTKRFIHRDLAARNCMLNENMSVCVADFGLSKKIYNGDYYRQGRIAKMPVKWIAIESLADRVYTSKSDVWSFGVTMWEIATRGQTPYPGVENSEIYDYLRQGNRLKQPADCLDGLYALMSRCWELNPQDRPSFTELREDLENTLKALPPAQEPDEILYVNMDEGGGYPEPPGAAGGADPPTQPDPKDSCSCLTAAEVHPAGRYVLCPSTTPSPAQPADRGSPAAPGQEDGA
As to the kind of experiment: HTRF kinase activity biochemical assay, AXL.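 Note: phosphorylation of a biotinylated tyrosine kinase substrate detected via Eu3+-cryptate anti-TK antibody and streptavidin-XL665, fluorescence read after a 1 h incubation at room temperature.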 As to conditions: recombinant kinase, 10 uM ATP, 30 minutes pre-incubation; read-out: HTRF AXL IC50.

Molecules are shown by their SMILES. Where only a bound is given, the exact number is not on record here.

On to `Cn1cc(Nc2ncc(C3CN(c4nc5ccc(CCC(=O)N6CCCC6)cc5o4)C3)nc2C(N)=O)cn1` [Example 63, 3-[(1-methyl-1H-pyrazol-4-yl)amino]-6-(1-{6-[3-oxo-3-(pyrrolidin-1-yl)propyl]-1,3-benzoxazol-2-yl}azetidin-3-yl)pyrazine-2-carboxamide], for which the IC50 at TYRO3 (455-end) stood at 4300 nM; on human MER (528-end) it was 11 nM; on human AXL (473-end), 16 nM.

In the case of `COC[C@H]1CCCN1C(=O)c1ccc2nc(N3CC(c4cnc(Nc5cnn(C)c5)c(C(N)=O)n4)C3)oc2c1` [Example 64, 6-(1-{6-[(2R)-2-(methoxymethyl)pyrrolidine-1-carbonyl]-1,3-benzoxazol-2-yl}azetidin-3-yl)-3-[(1-methyl-1H-pyrazol-4-yl)amino]pyrazine-2-carboxamide], the IC50 was 37 nM on TYRO3 (455-end), less than 1 nM at human MER (528-end) and 5 nM at human AXL (473-end).

As to `Cn1cc(Nc2ncc(C3CN(c4nc5ccc(CC(=O)N6CCCC6)cc5o4)C3)nc2C(N)=O)cn1` [Example 65, 3-[(1-methyl-1H-pyrazol-4-yl)amino]-6-(1-{6-[2-oxo-2-(pyrrolidin-1-yl)ethyl]-1,3-benzoxazol-2-yl}azetidin-3-yl)pyrazine-2-carboxamide], the IC50 on TYRO3 (455-end) is 1010 nM; at human MER (528-end), less than 1 nM; at human AXL (473-end) it was 1 nM.

As for `Cn1cc(Nc2ncc(C3CN(c4nc5ccc(CC(=O)O)cc5o4)C3)nc2C(N)=O)cn1` [Example 65C, [2-(3-{6-carbamoyl-5-[(1-methyl-1H-pyrazol-4-yl)amino]pyrazin-2-yl}azetidin-1-yl)-1,3-benzoxazol-6-yl]acetic acid], the IC50 on TYRO3 (455-end) came to 3530 nM; on human MER (528-end), 35 nM; on human AXL (473-end), 95 nM.

As to `Cn1cc(Nc2ncc(C3CN(c4nc5ccc(CC(=O)N6CCC[C@H]6CO)cc5o4)C3)nc2C(N)=O)cn1` [Example 66, 6-[1-(6-{2-[(2S)-2-(hydroxymethyl)pyrrolidin-1-yl]-2-oxoethyl}-1,3-benzoxazol-2-yl)azetidin-3-yl]-3-[(1-methyl-1H-pyrazol-4-yl)amino]pyrazine-2-carboxamide], the IC50 on TYRO3 (455-end) is 2900 nM; on human MER (528-end), 2 nM; on human AXL (473-end) it was 3 nM.

Turning to `Cn1cc(Nc2ncc(C3CN(c4nc5ccc(O[C@H]6CCOC6)cc5o4)C3)nc2C(N)=O)cn1` [Example 69, 3-[(1-methyl-1H-pyrazol-4-yl)amino]-6-[1-(6-{[(3S)-oxolan-3-yl]oxy}-1,3-benzoxazol-2-yl)azetidin-3-yl]pyrazine-2-carboxamide], the values for the IC50 on TYRO3 (455-end), on human MER (528-end) and on human AXL (473-end) were 570 nM, 2 nM and 8 nM, respectively.

For `CO[C@H]1CCN(C(=O)Cc2ccc3nc(N4CC(c5cnc(Nc6cnn(C)c6)c(C(N)=O)n5)C4)oc3c2)C1` [Example 70, 6-[1-(6-{2-[(3S)-3-methoxypyrrolidin-1-yl]-2-oxoethyl}-1,3-benzoxazol-2-yl)azetidin-3-yl]-3-[(1-methyl-1H-pyrazol-4-yl)amino]pyrazine-2-carboxamide], the IC50 at TYRO3 (455-end) was greater than 12500 nM; at human MER (528-end), 3 nM; at human AXL (473-end), 20 nM.

Regarding `COC[C@H]1CCCN1C(=O)Cc1ccc2nc(N3CC(c4cnc(Nc5cnn(C)c5)c(C(N)=O)n4)C3)oc2c1` [Example 71, 6-[1-(6-{2-[(2R)-2-(methoxymethyl)pyrrolidin-1-yl]-2-oxoethyl}-1,3-benzoxazol-2-yl)azetidin-3-yl]-3-[(1-methyl-1H-pyrazol-4-yl)amino]pyrazine-2-carboxamide], the IC50 was found to be 3730 nM at TYRO3 (455-end), 2 nM at human MER (528-end) and 4 nM on human AXL (473-end).

On to `Cn1cc(Nc2ncc(C3CN(c4nc5ccc(OCC(=O)N6CCC6)cc5o4)C3)nc2C(N)=O)cn1` [Example 73, 6-(1-{6-[2-(azetidin-1-yl)-2-oxoethoxy]-1,3-benzoxazol-2-yl}azetidin-3-yl)-3-[(1-methyl-1H-pyrazol-4-yl)amino]pyrazine-2-carboxamide], for which the results for the IC50 at TYRO3 (455-end), at human MER (528-end) and at human AXL (473-end) were 1700 nM, 2 nM and 9 nM, respectively.

Turning to `Cc1ccc2nc(N3CC(c4cnc(Nc5cn[nH]c5)c(C(N)=O)n4)C3)oc2c1` [Example 74, 6-[1-(6-methyl-1,3-benzoxazol-2-yl)azetidin-3-yl]-3-[(1H-pyrazol-4-yl)amino]pyrazine-2-carboxamide], the IC50 at TYRO3 (455-end) came to 130 nM; at human MER (528-end), 2 nM; on human AXL (473-end) it was 4 nM.

Regarding `Cn1cc(Nc2ncc(C3CN(c4nc5ccc(C(=O)N6CCC[C@@H]6C(C)(C)O)cc5o4)C3)nc2C(N)=O)cn1` [Example 75, 6-(1-{6-[(2R)-2-(2-hydroxypropan-2-yl)pyrrolidine-1-carbonyl]-1,3-benzoxazol-2-yl}azetidin-3-yl)-3-[(1-methyl-1H-pyrazol-4-yl)amino]pyrazine-2-carboxamide], the IC50 on TYRO3 (455-end) was 65 nM; on human MER (528-end), less than 1 nM; at human AXL (473-end), 3 nM.

`CN1CCCC(Oc2ccc3nc(N4CC(c5cnc(Nc6cnn(C)c6)c(C(N)=O)n5)C4)oc3c2)C1=O` (stereo not drawn) [Example 76, 6-(1-{6-[(1-methyl-2-oxopiperidin-3-yl)oxy]-1,3-benzoxazol-2-yl}azetidin-3-yl)-3-[(1-methyl-1H-pyrazol-4-yl)amino]pyrazine-2-carboxamide]: the IC50 on TYRO3 (455-end) is 240 nM; at human MER (528-end) it was less than 1 nM; at human AXL (473-end) it was 2 nM.

Turning to `C=CCOP(=O)(OCC=C)OC(C)(C)CCOc1ccc2nc(N3CC(c4cnc(Nc5cnn(C)c5)c(C(N)=O)n4)C3)oc2c1` [Example 77A, 4-{[2-(3-f{6-carbamoyl-5-[(1-methyl-1H-pyrazol-4-yl)amino]pyrazin-2-yl}azetidin-1-yl)-1,3-benzoxazol-6-yl]oxy}-2-methylbutan-2-yl diprop-2-en-1-yl phosphate], the IC50 was determined as 250 nM at TYRO3 (455-end), 2 nM on human MER (528-end) and 6 nM at human AXL (473-end).

In the case of `Cc1ccc2nc(N3CC(c4ccc(Nc5cnn(C)c5)c(C(N)=O)n4)C3)oc2c1` [Example 78, 6-[1-(6-methyl-1,3-benzoxazol-2-yl)azetidin-3-yl]-3-[(1-methyl-1H-pyrazol-4-yl)amino]pyridine-2-carboxamide], the IC50 was 270 nM at TYRO3 (455-end), 2 nM at human MER (528-end) and 6 nM on human AXL (473-end).

Regarding `Cn1cc(Nc2ncc(C3CN(c4nc5ccc(OC6CCCC6O)cc5o4)C3)nc2C(N)=O)cn1` (stereo not drawn) [Example 79, 6-(1-{6-[(2-hydroxycyclopentyl)oxy]-1,3-benzoxazol-2-yl}azetidin-3-yl)-3-[(1-methyl-1H-pyrazol-4-yl)amino]pyrazine-2-carboxamide], the IC50 on TYRO3 (455-end) is 66 nM; on human MER (528-end), less than 1 nM; on human AXL (473-end), 2 nM.

Regarding `Cn1cc(Nc2ncc(C3CN(c4nc5ccc(CC(=O)N6CCC[C@@H]6C(F)(F)F)cc5o4)C3)nc2C(N)=O)cn1` [Example 81, 3-[(1-methyl-1H-pyrazol-4-yl)amino]-6-[1-(6-{2-oxo-2-[(2R)-2-(trifluoromethyl)pyrrolidin-1-yl]ethyl}-1,3-benzoxazol-2-yl)azetidin-3-yl]pyrazine-2-carboxamide], the IC50 at TYRO3 (455-end) amounted to 1070 nM; on human MER (528-end), 1 nM; at human AXL (473-end) it was 3 nM.
